In patent US20110086920A1, “Gamma Glutamylcysteine Treatment or Prevention of Oxidative Injury” (priority 2007, published 2011):

Legend:
[1] = Plasma γ-glutamylcysteine levels after intravenous administration in rats; format: in vivo
Description: (§1) FIG. 2: IV γ-glutamylcysteine Supplementation in Rats. Two rats were administered γ-glutamylcysteine intravenously. […] Plasma was collected at 0, 15, 30, 60, 90, and 120 minutes post-administration and assayed for γ-glutamylcysteine levels.
(§2) Two rats were administered γ-glutamylcysteine intravenously. […] Plasma was collected at 0, 15, 30, 60, 90, and 120 minutes post-administration and assayed for γ-glutamylcysteine levels.

Neurons and Astrocytes = experiment: Cell death after H2O2 oxidative stress in vitro (MTT, LDH, GSH assays); format: cell-based; conditions: γ-glutamylcysteine 500 μM; 10 μM H2O2
Excerpt: FIGS. 1A-F: Effects of γ-glutamylcysteine on Neurons and Astrocytes. Protection of cells as measured by MTT (3-(4,5-Dimethylthiazol-2-yl)-2,5-diphenyltetrazolium bromide) assay, GSH (glutathione) assay, and LDH (lactate dehydrogenase) assay.

glutathione = experiment: Tissue glutathione levels after intravenous γ-glutamylcysteine supplementation in rats; format: in vivo; conditions: for Tissue Glutathione Concentration: rats 400 mg/kg IV, mean (95% CI)
Description: Ten rats were also administered 400 mg/kg of γ-glutamylcysteine intravenously. Major organ tissues were harvested from these rats at 0, 30, 60, 90, 120, and 240 minutes and assayed for glutathione concentration. […] [table]

[2] = rat, in vivo
Description: as §1, §2

neuronal cells = experiment: F2-IsoPs level (oxidative stress) in neuronal cells exposed to H2O2; format: cell-based; conditions: neuronal cells pretreated with GGC 500 μM four hours prior to exposure to H2O2
Excerpt: To quantify the oxidative stress response, as well as modification of this response by γ-glutamylcysteine supplementation, the inventors will measure isoprostane and isofuran levels. Isoprostanes are prostaglandin like compounds that are produced without cyclooxygenase by free radical induced peroxidation of arachidonic acid. Prostaglandin F2α like compounds, termed F2-isoprostanes (F2IsoPs) have been shown both in vitro and in vivo to be an accurate measure of oxidative stress.

With `N[C@@H](CCC(=O)N[C@@H](CS)C(=O)O)C(=O)O` [γ-glutamylcysteine] as the compound, how does the “plasma γ-glutamylcysteine levels” value ([1]; rats) read?
The value was “significant elevation”.

And the “time of peak plasma γ-glutamylcysteine concentration post-injection” value ([1]; two rats, plasma at 0-120 min)?
Its value is 30 min.

And the “cell death after exposure to H2O2” value (Neurons and Astrocytes)?
Its value is “significantly reduce cell death”.

And the “Tissue Glutathione Concentration” value (glutathione; Brain, 0 min, n=5)?
Its value is 57.3 (3.3-111.3) μM.

What about the “Tissue Glutathione Concentration” value (glutathione; Brain, 60 min, n=4) of the same compound?
The value was 302.3 (190.0-414.5) μM.

And the “Tissue Glutathione Concentration” value (glutathione; Brain, 90 min, n=2)?
The value was 146.9 (−1200.5-1494.3) μM.

What about the “Tissue Glutathione Concentration” value (glutathione; Brain, 120 min, n=2) of the same compound?
Its value is 170.7 (152.0-189.5) μM.

What about the “Tissue Glutathione Concentration” value (glutathione; Brain, 240 min, n=2) of the same compound?
The value was 110.7 (54.1-167.3) μM.

And the “Tissue Glutathione Concentration” value (glutathione; GI, 0 min, n=5)?
Its value is 12.9 (7.2-18.5) μM.

And the “Tissue Glutathione Concentration” value (glutathione; GI, 60 min, n=4)?
Its value is 189.8 (−5.5-385.0) μM.

What about the “Tissue Glutathione Concentration” value (glutathione; GI, 90 min, n=2) of the same compound?
The value was 166.8 (−1699.0-2032.5) μM.

And the “Tissue Glutathione Concentration” value (glutathione; GI, 120 min, n=2)?
The value was 14.0 (−1.6-29.6) μM.

What about the “Tissue Glutathione Concentration” value (glutathione; GI, 240 min, n=2) of the same compound?
The value was 18.5 (−100.3-137.3) μM.

And the “Tissue Glutathione Concentration” value (glutathione; Heart, 0 min, n=5)?
Its value is 210.9 (34.4-387.4) μM.

And the “Tissue Glutathione Concentration” value (glutathione; Heart, 60 min, n=4)?
Its value is 353.4 (220.9-486.0) μM.

And the “Tissue Glutathione Concentration” value (glutathione; Heart, 90 min, n=2)?
Its value is 658.9 (504.5-813.2) μM.

What about the “Tissue Glutathione Concentration” value (glutathione; Heart, 120 min, n=2) of the same compound?
The value was 165.9 (149.4-182.4) μM.

And the “Tissue Glutathione Concentration” value (glutathione; Heart, 240 min, n=2)?
Its value is 278.1 (170.7-385.4) μM.

And the “Tissue Glutathione Concentration” value (glutathione; Kidney, 0 min, n=5)?
The value was 14.9 (4.5-25.2) μM.

What about the “Tissue Glutathione Concentration” value (glutathione; Kidney, 60 min, n=4) of the same compound?
Its value is 13.5 (−9.1-36.2) μM.

What about the “Tissue Glutathione Concentration” value (glutathione; Kidney, 90 min, n=2) of the same compound?
Its value is 39.1 (−195.0-273.2) μM.

What about the “Tissue Glutathione Concentration” value (glutathione; Kidney, 120 min, n=2) of the same compound?
The value was 13.4 (−16.9-43.6) μM.

What about the “Tissue Glutathione Concentration” value (glutathione; Kidney, 240 min, n=2) of the same compound?
The value was 10.2 (−8.9-29.3) μM.

What about the “Tissue Glutathione Concentration” value (glutathione; Liver, 0 min, n=5) of the same compound?
Its value is 2162.4 (1490.3-2834.5) μM.

And the “Tissue Glutathione Concentration” value (glutathione; Liver, 60 min, n=4)?
The value was 5066.4 (−85.9-10218.8) μM.

What about the “Tissue Glutathione Concentration” value (glutathione; Liver, 90 min, n=2) of the same compound?
The value was 10832.6 (9616.0-12049.1) μM.

And the “Tissue Glutathione Concentration” value (glutathione; Liver, 120 min, n=2)?
Its value is 2990.0 (2239.8-3740.1) μM.

And the “Tissue Glutathione Concentration” value (glutathione; Liver, 240 min, n=2)?
The value was 4213.7 (−6431.5-14858.8) μM.

What about the “Tissue Glutathione Concentration” value (glutathione; Lung, 0 min, n=5) of the same compound?
The value was 142.2 (50.8-233.7) μM.

What about the “Tissue Glutathione Concentration” value (glutathione; Lung, 60 min, n=4) of the same compound?
The value was 293.5 (248.6-338.4) μM.

What about the “Tissue Glutathione Concentration” value (glutathione; Lung, 90 min, n=2) of the same compound?
The value was 412.2 (−571.1-1395.4) μM.

What about the “Tissue Glutathione Concentration” value (glutathione; Lung, 120 min, n=2) of the same compound?
Its value is 166.4 (−58.3-391.0) μM.

And the “Tissue Glutathione Concentration” value (glutathione; Lung, 240 min, n=2)?
The value was 93.2 (−261.7-448.1) μM.

What about the “Tissue Glutathione Concentration” value (glutathione; Muscle, 0 min, n=5) of the same compound?
The value was 228.5 (125-0-331.9) μM.

And the “Tissue Glutathione Concentration” value (glutathione; Muscle, 60 min, n=4)?
The value was 307.6 (−1.1-616.3) μM.

What about the “Tissue Glutathione Concentration” value (glutathione; Muscle, 90 min, n=2) of the same compound?
The value was 654.5 (44.8-1264.2) μM.

What about the “Tissue Glutathione Concentration” value (glutathione; Muscle, 120 min, n=2) of the same compound?
Its value is 170.5 (−137.5-478.6) μM.

And the “Tissue Glutathione Concentration” value (glutathione; Muscle, 240 min, n=2)?
Its value is 21.9 (−16.3-60.1) μM.

And the “mean glutathione levels in brain, heart, lung, liver, kidney, gastrointestinal and muscle tissues” value (glutathione; rats, 400 mg/kg intravenous)?
Its value is “increased”.

What about the tissue glutathione levels (glutathione; rats, intravenous) of the same compound?
Its tissue glutathione levels is “significant elevation”.

And the “tolerability of intravenous supplementation” value [2]?
The value was “well-tolerated”.

And the “clinically visible signs of toxicity” value ([2]; iv)?
Its value is “no clinically visible signs of toxicity”.

And the “level of F2-IsoPs (oxidative stress)” value (neuronal cells)?
The value was “reduced”.
